The subject of assay [1] is TNFa. The assay can be described thus: TNFa ELISA, PBMC, Resiquimod (R848) stimulated. Format: cell-based. Conditions: 10 pt curve. Background: ELISA stands for enzyme-linked immunosorbent assay.
In assay [2] the target is IRAK1 (Homo sapiens, UniProt P51617). As to the kind of experiment: IRAK1 ADP-Glo Kinase assay. Type of assay: biochemical. Conditions: 8 pt curve. On the technique in general: In ADP-Glo the light output rises with the ADP produced.
Assay [3] relates to IL23-p19. The assay can be described thus: LPS induced IL23p19 in THP-1 cells (IFNγ primed), sandwich ELISA. Format: cell-based. Conditions: Homo sapiens; THP-1 cells primed with IFNγ, LPS 1 μg/mL, 10 pt curve; read-out: IL23-p19 ELISA, THP1-IFNy, LPS, 10 pt. An excerpt:
LPS Induced IL23p19 in THP-1 Cells (with IFNγ Primed) Assay
THP-1 Cells (ATCC, Cat #TIB-202), Dimethyl Sulfoxide (DMSO) (Sigma-Aldrich, Cat #D2650), RPMI 1640 (Cellgro, Cat #10-040-CM), Fetal Bovine Serum (Sigma, Cat #F4135), Albumin From Bovine Serum (BSA) (Sigma-Aldrich, Cat #A7906), LPS (Serotype K-235, Sigma, Product Number L 2143), IFNγ (Peprotech, Cat #300-02), Capture antibody: Human IL-23p19 ELISA (e-Bioscience, Cat. #14-7238-85), Detection antibody: Primary Mouse Biotinylated anti-human IL-12(p40/p70) (e-Bioscience, Cat. #13-7129-85), Secondary HRP-conjugated Streptavidin (R&D Systems, Cat #DY998), 1×PBST Washing Buffer (PBS-Tween tablet) (VWR International, Cat #80058-558), ELISA Blocking Buffer (PBS with 1% BSA), ELISA Dilution Buffer (PBS with 1% BSA), 384 Well Flat-Bottom, MaxiSorp Black Immuno Plates (Thermo Scientific, Cat #12-565-346), 384 Well Flat-Bottom, White Tissue Culture Plates (Thermo Scientific, Cat #12-565-343), Super Signal ELISA Pico Chemiluminescent Substrate (Thermo Scientific, Cat #37070), Cell Titer Glo reagent (Promega, Cat #G7573), Positive control, IKK2VI inhibitor (Calbiochem, Cat #401483), AquaMax 4000 plate washer (Molecular Devices), Luminometer, Wallac Victor2 1420 Multilabel Counter.
On day 1, 50K/well THP-1 cells were seeded and primed with IFNγ (50 ng/mL) in 384-well plates for about 18 hours in RPMI media with 10% FBS. On day 2, the compound was serially diluted in DMSO from 5 mM in 3-fold dilutions, and then diluted 1:125 in RPMI media with 10% FBS. 50 μL/well 2× compound was added to 50 μL/well THP-1 cells (with IFNγ primed) in duplicate in 384 well tissue culture plates. The cells were pre-incubated with compound for 1 hour at 37° C., 5% CO2 before addition of 10 μL/well 11×LPS to give a final concentration of 1 μg/mL LPS. Day 3, after stimulation for 18 hours at 37° C., 5% CO2, the assay plate was centrifuged and 70 μL/well supernatant was harvested. IL-23p19 protein in 70 μL/well of supernatant was measured by sandwich ELISA, and 25 μl/well Cell Titer Glo reagent was added to the remaining cells to measure compound toxicity.
Human IL-23p19 Sandwich ELISA:
Maxisorp immuno ELISA plates were pre-coated with 25 μL/well of anti-IL-23p19 capture antibody (2.5 ug/mL) in PBS overnight at room temperature. After washing with 1×PBST, the plates were blocked using 100 μL/well of 1% BSA in PBS for 2 hours at room temperature. The plates were washed three times with 1×PBST and 70 μL/well supernatant were added. The plates were incubated at room temperature for 2 hours with shaking and washed three times with 1×PBST. 25 μL/well of biotin labeled anti-IL-12(p40/p70) detection antibody (100 ng/mL) in PBS with 1% BSA was added and the plates were incubated at room temperature for 2 hours with shaking. After washing three times with 1×PBST, 25 μL/well of streptavidin-HRP (1:200) in PBS with 1% BSA was added and the plates were incubated at room temperature for 20 minutes with shaking. The plates were washed three times with 1×PBST and 25 μL/well of Super Signal ELISA Pico Chemiluminescent Substrate were added. The plates were read with a luminometer, and the chemiluminescence values were entered into Athena (Rigel) for curve fitting, EC50 calculation, and database storage.

Assay [4] has as its target T1, IRAK4 (Homo sapiens, UniProt Q9NWZ3).
T1 construct: purchased Signalchem I12-10G-20
T1 sequence (Q9NWZ3 1-460): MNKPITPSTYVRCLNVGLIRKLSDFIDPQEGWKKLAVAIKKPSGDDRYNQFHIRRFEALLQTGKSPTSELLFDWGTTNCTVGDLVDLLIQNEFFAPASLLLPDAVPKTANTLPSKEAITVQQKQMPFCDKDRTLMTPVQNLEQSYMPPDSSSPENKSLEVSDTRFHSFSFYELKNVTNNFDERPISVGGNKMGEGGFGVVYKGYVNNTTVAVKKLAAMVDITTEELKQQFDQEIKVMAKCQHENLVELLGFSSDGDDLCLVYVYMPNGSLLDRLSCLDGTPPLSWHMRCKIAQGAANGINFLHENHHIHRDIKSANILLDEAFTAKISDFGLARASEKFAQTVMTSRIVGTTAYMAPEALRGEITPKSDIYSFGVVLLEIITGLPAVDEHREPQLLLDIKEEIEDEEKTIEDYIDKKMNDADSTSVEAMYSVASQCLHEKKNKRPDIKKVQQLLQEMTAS
As to the kind of experiment: IRAK4 ADP-Glo assay. Format: biochemical. The note with it: 8 pt curve; read-out: IRAK4 ADP-Glo Kinase, 8 pt. The protocol: IRAK4 Kinase Enzyme (Signalchem, I12-10G-20); 0.1M DTT (Signalchem, D86-09B); MBP Substrate (Signalchem, M42-51N); ADP Glo (Promega, V9101); 1M MgCl2 (Teknova, M03304); 1M Tris-HCl pH7.4 (Teknova, T1074); BSA (Sigma (A3059); Distilled H2O
Wallac Victor2 1420 Multilabel Counter
The ADP-Glo™ reagents were thawed at ambient temperature. The Kinase Detection Reagent was prepared by mixing kinase detection buffer with the lyophilized kinase detection substrate, and set aside.
A stock volume of 5× Reaction Kinase Buffer was made with a final concentration of 100 mM MgCl2, 200 mM Tris-HCl, and 0.5 mg/ml of BSA, in distilled H2O with a final pH7.4. A 2× working stock volume of Reaction Kinase Buffer was made containing a final concentration of […].
The components of IRAK4 Enzyme were thawed on ice. Diluted IRAK4 in 1× Kinase Reaction Buffer (diluted from 2× buffer) was prepared at […]. A […] working stock ATP Assay Solution was prepared in 1× Kinase Reaction Buffer (diluted from 2× buffer).
The compound was diluted in DMSO from 250 µM in 4-fold series dilutions for 8 points. Then diluted 1:5 in 2× Reaction Buffer in a 96 well plate. 1.01 was transferred to a 384 well plate in duplicate. […] 1 μl of 1 mg/ml stock solution of MBP substrate was added NOTE: MBP can be combined with ATP mix with equal volume and then added at 2 d/well. Final reaction volume was 5 μl.
The plate was centrifuged and the reaction mixture was incubated at room temperature for 60 minutes or at 30° C. for 30 minutes.
The reaction was terminated and the remaining ATP was depleted by adding 5 μl of ADP-Glo™ Reagent. The 384-well plate was centrifuged and then the reaction mixture was incubated for another 40 minutes at ambient temperature.
10 μl of the Kinase Detection Reagent was added. The plate was centrifuged and then the reaction mixture was incubated for another 30 minutes at ambient temperature.
The 384-well reaction plate was read using the WALLAC plate reader (Luminescence 0.1s).

In assay [5] the test system is TNFa. The assay can be described thus: TNFa ELISA, dendritic cells, Gardiquimod stimulated. Type of assay: cell-based. Conditions: Homo sapiens, Dendritic cell, 10 pt curve.

IRAK1, sequence (P51617 whole entry): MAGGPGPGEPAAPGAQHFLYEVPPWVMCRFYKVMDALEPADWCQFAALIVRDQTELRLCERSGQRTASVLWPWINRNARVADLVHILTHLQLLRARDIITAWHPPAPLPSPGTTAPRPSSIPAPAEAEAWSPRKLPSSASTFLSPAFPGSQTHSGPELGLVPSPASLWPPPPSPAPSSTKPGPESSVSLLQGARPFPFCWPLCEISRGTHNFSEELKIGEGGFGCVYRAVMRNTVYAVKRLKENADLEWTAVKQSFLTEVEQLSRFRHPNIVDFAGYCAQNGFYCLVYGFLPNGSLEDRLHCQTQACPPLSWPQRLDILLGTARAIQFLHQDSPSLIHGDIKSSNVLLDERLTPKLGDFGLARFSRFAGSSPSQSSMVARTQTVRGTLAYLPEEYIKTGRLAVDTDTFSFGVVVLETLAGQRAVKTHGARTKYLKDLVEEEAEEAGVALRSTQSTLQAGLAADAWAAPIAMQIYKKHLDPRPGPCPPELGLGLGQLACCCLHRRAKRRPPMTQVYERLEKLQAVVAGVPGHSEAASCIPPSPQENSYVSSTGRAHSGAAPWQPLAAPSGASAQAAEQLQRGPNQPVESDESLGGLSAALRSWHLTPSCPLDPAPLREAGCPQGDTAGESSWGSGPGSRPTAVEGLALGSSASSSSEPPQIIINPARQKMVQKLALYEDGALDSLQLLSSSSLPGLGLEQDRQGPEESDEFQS

As to `CC(C)c1c[nH]c(=O)c2cc3ccnc(OC[C@@H]4CCC(=O)N4)c3cc12` [I-15, (S)-4-isopropyl-6-((5-oxopyrrolidin-2-yl)methoxy)pyrido[3,4-g]isoquinolin-1(2H)-one], the EC50 amounted to 0.0683 µM in assay [1] and 0.501 µM in assay [3]. Further, the values for the IC50 in assay [2] and in assay [4] were 8.37 µM and 0.0062 µM, respectively.

As for `CC(C)(O)c1c[nH]c(=O)c2cc3ccnc(OC[C@@H]4CCC(=O)N4)c3cc12` [I-20, (S)-4-(2-hydroxypropan-2-yl)-6-((5-oxopyrrolidin-2-yl)methoxy)pyrido[3,4-g]isoquinolin-1(2H)-one], the EC50 in assay [1] came to 6.97 µM; in assay [3], 38.7 µM. Also, the IC50 in assay [4] worked out at 0.303 µM.

Regarding `O=C1CC[C@@H](COc2nccc3cc4c(=O)[nH]cc(CCO)c4cc23)N1` [I-22, (S)-4-(2-hydroxyethyl)-6-((5-oxopyrrolidin-2-yl)methoxy)pyrido[3,4-g]isoquinolin-1(2H)-one], the figures for the EC50 in assay [1], in assay [3] and in assay [5] were 4.47 µM, 6.98 µM and 2.01 µM, respectively. The IC50 in assay [2] was 9.08 µM; in assay [4], 0.0104 µM.

For `Cc1c[nH]c(=O)c2cc3ccnc(OC[C@@H]4CCC(=O)N4)c3cc12` [I-25, (S)-4-methyl-6-((5-oxopyrrolidin-2-yl)methoxy)pyrido[3,4-g]isoquinolin-1(2H)-one], the results for the EC50 in assay [1], in assay [3] and in assay [5] were 0.393 µM, 0.0796 µM and 6.22 µM, respectively. In addition, the IC50 in assay [4] came to 0.0692 µM.

As for `CC#Cc1c[nH]c(=O)c2cc3ccnc(OC[C@@H]4CCC(=O)N4)c3cc12` [I-24, (S)-6-((5-oxopyrrolidin-2-yl)methoxy)-4-(prop-1-yn-1-yl)pyrido[3,4-g]isoquinolin-1(2H)-one], the EC50 in assay [1] stood at 0.283 µM; in assay [3], 0.377 µM; in assay [5], 0.316 µM. Further, in assay [4], the IC50 came to 0.0557 µM.

On to `O=C1CC[C@@H](COc2nccc3cc4c(=O)[nH]cc(C(F)(F)F)c4cc23)N1` [I-30, (S)-6-((5-oxopyrrolidin-2-yl)methoxy)-4-(trifluoromethyl)pyrido[3,4-g]isoquinolin-1(2H)-one], for which the EC50 in assay [1] came out at 2.02 µM; in assay [3], 2.26 µM; in assay [5] it was 18.3 µM. For the same compound, the IC50 in assay [4] turned out to be 0.212 µM.

In the case of `CC[C@@H]1[C@H](F)C(=O)N[C@@H]1COc1nccc2cc3c(=O)[nH]cc(I)c3cc12` [I-44, 6-(((2S,3S,4S)-3-ethyl-4-fluoro-5-oxopyrrolidin-2-yl)methoxy)-4-iodopyrido[3,4-g]isoquinolin-1(2H)-one], the EC50 in assay [1] was 0.0052 µM; in assay [5] it was 0.002 µM. Besides, the IC50 is 0.0277 µM in assay [2] and 0.0042 µM in assay [4].

With `CCc1c[nH]c(=O)c2cc3ccnc(OC[C@@H]4CCC(=O)N4)c3cc12` [I-8, (S)-4-ethyl-6-((5-oxopyrrolidin-2-yl)methoxy)pyrido[3,4-g]isoquinolin-1(2H)-one], the EC50 in assay [1] is 0.112 µM; in assay [5], 0.148 µM. The IC50 in assay [2] amounted to 7.23 µM; in assay [4] it was 0.0085 µM.

With `CCCc1c[nH]c(=O)c2cc3ccnc(OC[C@@H]4CCC(=O)N4)c3cc12` [I-10, (S)-6-((5-oxopyrrolidin-2-yl)methoxy)-4-propylpyrido[3,4-g]isoquinolin-1(2H)-one], the EC50 in assay [1] came out at 0.369 µM; in assay [5], 0.613 µM. Moreover, the figures for the IC50 in assay [2] and in assay [4] were 11.1 µM and 0.0742 µM, respectively.

For `O=C1CC[C@@H](COc2nccc3cc4c(=O)[nH]cc(CC(F)(F)F)c4cc23)N1` [I-19, (S)-6-((5-oxopyrrolidin-2-yl)methoxy)-4-(2,2,2-trifluoroethyl)pyrido[3,4-g]isoquinolin-1(2H)-one], the results for the EC50 in assay [1] and in assay [5] were 0.208 µM and 0.177 µM, respectively. In addition, the IC50 in assay [2] is 14.8 µM; in assay [4] it was 0.105 µM.

With `C=CCc1c[nH]c(=O)c2cc3ccnc(OC[C@@H]4CCC(=O)N4)c3cc12` [I-9, (S)-4-allyl-6-((5-oxopyrrolidin-2-yl)methoxy)pyrido[3,4-g]isoquinolin-1(2H)-one], the EC50 came to 0.376 µM in assay [1] and 0.419 µM in assay [5]. Further, the IC50 worked out at 6.86 µM in assay [2] and 0.0145 µM in assay [4].

In the case of `O=C1CC[C@@H](COc2nccc3cc4c(=O)[nH]cc(C5CCCC5)c4cc23)N1` [I-13, (S)-4-cyclopentyl-6-((5-oxopyrrolidin-2-yl)methoxy)pyrido[3,4-g]isoquinolin-1(2H)-one], the EC50 in assay [1] came to 0.303 µM; in assay [3], 8.47 µM. Further, the IC50 in assay [2] came out at 6.26 µM; in assay [4] it was 0.0559 µM.

Regarding `CC(O)c1c[nH]c(=O)c2cc3ccnc(OC[C@@H]4CCC(=O)N4)c3cc12` (stereo partly drawn) [I-36, 4-(1-hydroxyethyl)-6-(((S)-5-oxopyrrolidin-2-yl)methoxy)pyrido[3,4-g]isoquinolin-1(2H)-one], the EC50 in assay [1] is 1.03 µM; in assay [5], 63.8 µM. Also, the results for the IC50 in assay [2] and in assay [4] were 11.3 µM and 0.0627 µM, respectively.
